# According to article PMC6443933, “Antagonizing Retinoic Acid-Related-Orphan Receptor Gamma Activity Blocks the T Helper 17/Interleukin-17 Pathway Leading to Attenuated Pro-inflammatory Human Keratinocyte and Skin Responses” (Frontiers in Immunology, 2019):
# Experiments:
# [1] = tested on: naive human CD4+ T-cells; assay: Th17 polarization of naive CD4+ T-cells, IL-17A ELISA; assay type: cell-based; conditions: T-cell, 168 h, Th17 differentiation 7 days, read-out: IC50, IL-17A secretion
# Protocol: (§1) Total, naive and memory CD4^+ T cells were isolated from Peripheral blood mononuclear cells (PBMCs) from healthy volunteers by density gradient centrifugation using Ficoll Paque (GE). Total, naive or memory CD4^+ T-cells were prepared by immunomagnetic separation using the respective CD4^+ T-cell enrichment kits resulting in untouched highly purified subsets (EasySep™, Stem Cell). Purity was assessed by flow cytometry and was between 95 and 98% for the total CD4^+ T-cells. The purity of naive (CD45RA^+CD45RO^−) and memory (CD45RA^−CD45RO^+) CD4^+T-cells ranged between 95 and 98%, respectively. For T-cell stimulation experiments, cells were treated as previously published ([44]). Briefly, T-cells were stimulated with plate-bound monoclonal antibodies against CD3 (1 μg/ml, clone OKT-3, BioXcell) and CD28 (1 μg/ml, clone CD28.2, BioLegend). For Th17 polarization assays, IL-6 (20 ng/ml), TGF-β1 (5 ng/ml), IL-1β (10 ng/ml), and IL-23 (10 ng/ml) were added. For Th1 polarization assays, IL-12 (10 ng/ml) and anti-IL-4 antibody (5 μg/ml), for Th2 polarizations, IL-4 (10 ng/ml) and anti-IFN-γ antibody (5 μg/ml) were added. For Th0 polarization assays, cells were only stimulated with CD3 and CD28 antibodies. […] Cytokine concentrations were quantified by ELISA according to the manufacturer's instructions (eBioscience or BioLegend).
# [2] = tested on: memory human CD4+ T-cells; assay: Th17 polarization of memory CD4+ T-cells, IL-17A ELISA; assay type: cell-based; conditions: T-cell, 168 h, Th17 differentiation 7 days, read-out: IC50, IL-17A secretion
# Protocol: as §1
# [3] = tested on: CD4+ CD25 high gated PBMCs; assay: FoxP3 expression in CD4+ CD25 high T-cells under Treg inducing conditions; assay type: cell-based, human; conditions: 96 h Treg inducing conditions, vs DMSO
# Protocol: PBMCs from freshly drawn heparinized blood originating from healthy volunteers were isolated by density gradient centrifugation using Ficoll Paque (GE). PBMCs (1 × 10^5/well) were incubated for 96 h in the presence of DMSO or Cpd A (1 μM) together with anti-CD3 (3 ng/ml, clone OKT-3, BioXcell), anti-CD28 (30 ng/ml, clone CD28.2, BioLegend), TGF-β1 (0.2 ng/ml, Biolegend), IL-2 (15 ng/ml, Biolegend), anti-IFN-γ antibody (5 μg/ml, Biolegend), and anti-IL-4 (5 μg/ml, Biolegend). Cells were prepared for CD4/CD25 surface staining, followed by intracellular FoxP3 staining.
# For FoxP3 detection within the CD4^+ CD25 high T-cells, surface staining was performed for 20 min with FITC labeled CD4 antibody and anti-CD25 BV421 antibody (BD Bioscience). After surface staining, the cells were washed, fixed and permeabilized according to the manufacturer's instructions (eBioscience) prior to intracellular staining with APC labeled FoxP3 antibody (eBioscience). Data were acquired on a LSR Fortessa (BD Bioscience) and analyzed using FlowJo software (Tree Star). FoxP3 expression was determined in gated CD4^+ CD25 high T-cells that were treated with DMSO or with Cpd A.
# [4] = tested on: total CD4+ T-cells; assay: Intracellular FACS of IL-17A/IFN-γ-producing CD4+ T-cells after Th17 polarization; assay type: cell-based, human; conditions: 3-day Th17 differentiation
# Protocol: as §1, with “or BioLegend). […]” for “or BioLegend).”
# [5] = tested on: T1, RORα; assay: RORα LBD-GAL4 reporter gene assay in Jurkat cells; assay type: cell-based, human
# T1 construct: RORα and RORβ we performed LBD-GAL4 reporter gene assays; expressed in transfected cells; host or cells: Jurkat cells stably carrying pGL4.35
# Protocol: (§2) Selectivity against other ROR family members was assessed in a GAL4 reporter gene assay as previously described ([44]). Briefly, Jurkat cells stably expressing the pGL4.35 plasmid (Promega) containing nine GAL4 binding sites inducing the transcription of the luciferase reporter gene were transiently transfected with the human RORα, RORβ or RORγt-LBD/GAL4-DBD constructs. After 24 h post-transfection, cells were incubated with Cpd A for an additional 24 h before luciferase activity was determined using an EnVision Multilabel Plate Reader (Perkin Elmer).
# [6] = tested on: T2, RORβ; assay: RORβ LBD-GAL4 reporter gene assay in Jurkat cells; assay type: cell-based, human
# T2 construct: RORα and RORβ we performed LBD-GAL4 reporter gene assays; expressed in transfected cells; host or cells: Jurkat cells stably carrying pGL4.35
# Protocol: as §2
structure (smiles),measurement,setting,value
"Cc1ccc(C(=O)Nc2cn3ccnc3c(CN3CCN(c4noc(C(C)(C)C)n4)[C@@H](C)C3)c2C)cn1 [Cpd A, (S)-N-(8-((4-(5-(tert-butyl)-1,2,4-oxadiazol-3-yl)-3-methylpiperazin-1-yl)methyl)-7-methylimidazo[1,2-a]pyridin-6-yl)-6-methylnicotinamide]",IC50,[1],15 nM
same,IC50,[2],27 nM
same,FoxP3 expression,[3],did not result in altered FoxP3 expression
same,frequencies of IFN-γ+ cells,[4],not affected
same,frequencies of IL-17A+ cells within the CD4+ T-cell population,[4],reduced
same,activity toward RORα (LBD-GAL4 reporter),[5],lacked activity
same,activity toward RORβ (LBD-GAL4 reporter),[6],lacked activity
